Values after ≈ are worked out from the molar mass of the structure shown. Values belong to the molecule of their own block, whether it stands above or below them.
What was measured:
[1] = molecular target: T1, human recombinant GLP-1 receptor (Homo sapiens, UniProt P43220); assay: In vitro potency assay, cAMP response element luciferase reporter in CHO cells; format: cell-based; conditions: MEDI0382 in buffer, in cyclodextrin, and co-formulated with DPZ
T1 construct: expressed in transfected cells; host or cells: CHO-K1
Procedure: (§1) Briefly, cells were plated at 20,000 cells per well in 96-well white microtiter plates (Corning, USA) and incubated with serially diluted peptide samples for 4 hours prior to lysis and measurement of cAMP dependent luciferase activity using Steady-Glo luciferase substrate (Promega, USA). Plates were read on a SpectraMax Paradigm plate reader (Molecular Devices, USA), and 10-point concentration-response curves were generated in triplicate. Results were expressed as the relative potency of the test sample compared to a reference ligand by calculating the ratio of the reference and sample EC50 values from a 4-PL fit following a test for parallelism using SoftMax Pro software (Molecular Devices, USA), and the reported data was the mean of two independent assays. Curves were fitted using nonlinear regression analysis in GraphPad Prism software 6.03 (GraphPad, USA).
(§2) Although HPβCD enhances the physical stability of the peptide, the loss of alpha-helix could have a dramatic impact on the potency of the peptide. […] The in vitro potency was assessed on CHO cells over-expressing human recombinant GLP-1 or glucagon receptors, and the activity was reported as EC50 values after measurement of cAMP accumulation.

[2] = molecular target: T2, human recombinant glucagon receptor (Homo sapiens, UniProt P47871); assay: as above; format: cell-based; conditions: MEDI0382 in buffer, in cyclodextrin, and co-formulated with DPZ
T2 construct: expressed in transfected cells; host or cells: CHO-K1
Procedure: as §1, §2

[3] = tested on: DIO mice; conditions: repeat injections; cited from earlier work
[4] = tested on: non-human primates; conditions: repeat injections; cited from earlier work
[5] = tested on: overweight and obese patients with type 2 diabetes; conditions: cited from earlier work
[6] = cited from earlier work
[7] = target 17 mg/mL DPZ; formulation containing cyclodextrin (HPβCD); visual observation
Procedure: The appropriate aqueous vehicle was added onto the powder to achieve a final concentration of 17 mg/mL, vortex mixed, and sonicated. The pass/fail criteria for the formulation was determined through visual observation.
The screening assay was therefore designed to target a concentration of 17 mg/mL, corresponding to a […] dose in 600 μL dose volume. […] The excipients screened included PEG 400, PG, DSPE-PEG 2000, Glycerol, Kolliphor 188, HPβCD, and BSA. […] Only the formulation containing cyclodextrin was successful and therefore taken forward for further evaluation as a potential co-formulation vehicle.

[8] = physchem
Procedure: Various HPβCD (Kleptose HPB, Roquette) solutions at increasing concentrations were prepared in water ranging from 5% to 20% (w/v). Briefly, HPβCD was weighed in a volumetric flask and purified water was added up to 80% (v/v) of final volume. The flask was mixed until full solubilisation and made up to final volume with purified water. […] Each concentration was done in duplicate. The formulations were left under magnetic stirring for 21 h 40 min. Each sample was then transferred to a 1.5 mL eppendorf and centrifuged at 13,000 rpm for 10 min. Then 200 μL was taken from the supernatant and centrifuged again in a 1.5 mL eppendorf for 30 min at 13,000 rpm. The samples were finally diluted in buffer A (95% HPLC water/5% ACN+0.03% TFA), and the concentration was measured by UPLC against a calibration curve validated with quality controls.

[9] = Pharmacokinetic study after subcutaneous injection in rats; format: in vivo; conditions: DPZ 0.5 mg/kg
Procedure: For the PK study, MEDI0382 alone in buffer was prepared at 0.5 mg/mL in 50 mM Na Phosphate buffer pH 7.8+1.85% propylene glycol (PG) (J. T. Baker).
The cyclodextrin vehicle used for the PK study was 7% w/v HPβCD in 50 mM Na Phosphate buffer pH 7.8+0.5% v PG. The PG was added to adjust the osmolarity of the formulations to 260 mOsm. […] In parallel, MEDT0382 alone in buffer was prepared at 0.5 mg/mL in 50 mM NaP buffer pH 7.8+1.85% v/v PG. The formulations were then diluted to 1/10 with their corresponding vehicle.
Three animals per group were included, and serial blood sampling for PK evaluation occurred at 0.5, 1, 2, 4, 7, and 24 hr post dose.

[10] = oral administration; cited from earlier work

T2 sequence (P47871 26-477): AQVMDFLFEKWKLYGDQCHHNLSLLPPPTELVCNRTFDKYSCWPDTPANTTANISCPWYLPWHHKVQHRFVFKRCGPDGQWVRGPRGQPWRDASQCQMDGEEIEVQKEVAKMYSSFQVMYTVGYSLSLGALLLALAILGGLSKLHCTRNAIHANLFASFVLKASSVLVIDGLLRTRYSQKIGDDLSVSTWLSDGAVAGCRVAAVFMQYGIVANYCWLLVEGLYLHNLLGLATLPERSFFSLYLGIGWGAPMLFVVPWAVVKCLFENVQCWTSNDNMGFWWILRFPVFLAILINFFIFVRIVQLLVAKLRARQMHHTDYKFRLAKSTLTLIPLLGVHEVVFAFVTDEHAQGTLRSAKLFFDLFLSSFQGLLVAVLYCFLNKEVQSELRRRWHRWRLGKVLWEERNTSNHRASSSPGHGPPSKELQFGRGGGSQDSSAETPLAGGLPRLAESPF
T1 sequence (P43220 24-463): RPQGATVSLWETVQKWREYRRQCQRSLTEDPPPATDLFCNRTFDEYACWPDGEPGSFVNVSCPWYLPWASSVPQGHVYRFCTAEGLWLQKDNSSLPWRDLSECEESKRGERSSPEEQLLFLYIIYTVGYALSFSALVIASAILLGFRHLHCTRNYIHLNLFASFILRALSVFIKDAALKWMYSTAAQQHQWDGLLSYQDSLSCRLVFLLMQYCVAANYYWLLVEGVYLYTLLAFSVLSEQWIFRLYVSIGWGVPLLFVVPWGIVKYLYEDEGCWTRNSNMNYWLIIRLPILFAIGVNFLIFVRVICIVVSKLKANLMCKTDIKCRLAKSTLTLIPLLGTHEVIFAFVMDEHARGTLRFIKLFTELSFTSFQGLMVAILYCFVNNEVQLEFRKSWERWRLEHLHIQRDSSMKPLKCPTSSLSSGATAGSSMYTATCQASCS

EC50 (cAMP accumulation), change between formulations [1]: no change of EC50 | EC50 (cAMP accumulation), change between formulations [2]: no change of EC50
Molecule: CCCCCCCCCCCCCCCC(=O)N[C@@H](CCC(=O)NCCCC[C@H](NC(=O)[C@H](CC(=O)O)NC(=O)[C@H](CO)NC(=O)[C@@H](NC(=O)[C@H](Cc1ccccc1)NC(=O)[C@@H](NC(=O)CNC(=O)[C@H](CCC(N)=O)NC(=O)[C@H](CO)NC(=O)[C@@H](N)Cc1c[nH]cn1)[C@@H](C)O)[C@@H](C)O)C(=O)N[C@@H](CO)C(=O)N[C@@H](CCC(=O)O)C(=O)N[C@@H](Cc1ccc(O)cc1)C(=O)N[C@@H](CC(C)C)C(=O)N[C@@H](CC(=O)O)C(=O)N[C@@H](CO)C(=O)N[C@@H](CCC(=O)O)C(=O)N[C@@H](CCCNC(=N)N)C(=O)N[C@@H](C)C(=O)N[C@@H](CCCNC(=N)N)C(=O)N[C@@H](CC(=O)O)C(=O)N[C@@H](Cc1ccccc1)C(=O)N[C@H](C(=O)N[C@@H](C)C(=O)N[C@@H](Cc1c[nH]c2ccccc12)C(=O)N[C@@H](CC(C)C)C(=O)N[C@@H](CCC(=O)O)C(=O)N[C@@H](C)C(=O)NCC(=O)NCC(=O)O)C(C)C)C(=O)O [MEDI0382]
effect on weight and glucose [3]: marked weight loss and robust glucose control | effect on weight and glucose [4]: marked weight loss and robust glucose control | clinical efficacy [5]: glucose, weight and liver fat lowering efficacy

Molecule: glucagon
pKa of N-terminal His alpha-amino group [6]: 7.6 | pKa of N-terminal His imidazole group [6]: 7.4

Solubility screen result (pass/fail) [7]: successful | amount of HPβCD required to increase the solubility up to 17 mg/mL [8]: 5.5 % (w/v) | solubility change with increasing HPβCD concentration [8]: linearly increased | stoichiometry of inclusion complex (phase solubility) [8]: 1:1 | solubility at 21.67 h ([8]; water, thermodynamic from solid): 1600 µg/mL (≈ 3.91 mM) | PK of DPZ in the presence of MEDI0382 [9]: unchanged
Molecule: CCOc1ccc(Cc2cc([C@@H]3O[C@H](CO)[C@@H](O)[C@H](O)[C@H]3O)ccc2Cl)cc1 [DPZ, dapagliflozin]
absolute bioavailability [10]: 78%

solubility change with increasing HPβCD concentration [8]: linear solubility increase
Molecule: OC[C@H]1O[C@@H](c2ccc(Cl)c(Cc3ccc(O[C@H]4CCOC4)cc3)c2)[C@H](O)[C@@H](O)[C@@H]1O [EPZ, empagliflozin]

— US20220249617A1, “CYCLODEXTRIN BASED INJECTABLE COFORMULATIONS OF SGLT2 INHIBITORS AND INCRETIN PEPTIDES” (MEDIMMUNE LIMITED, priority 2019, published 2022)
